According to patent US20260272881A1, “QTX125 DRUG FORMULATIONS” (Quimatryx, S.L., priority 2022, published 2026):
In brackets after ≈: the same amount, converted by molar mass.

Legend:
[1] = test system: rats, mice and dogs; conditions: range of animal species including rats; cited from earlier work
[2] = test system: mice; conditions: cited from earlier work
[3] = acute toxicity studies; cited from earlier work
[4] = Solubility in water and stability in solution of QTX125 (background); assay type: physicochemical
[5] = hydroxamic acids such as QTX125; cited from earlier work
[6] = test system: multiple sclerosis mice models; conditions: two different multiple sclerosis mice models; cited from earlier work
[7] = Genotoxicity (clastogenicity, aneugenicity)
[8] = test system: lung cancer; conditions: lung cancer xenograft murine model; cited from earlier work
[9] = Pharmacokinetic properties (half-lives, distribution volumes); assay type: in vivo; conditions: compared with other histone deacetylase inhibitors
[10] = test system: mantle cell lymphoma; conditions: mantle cell lymphoma xenograft murine model; cited from earlier work
[11] = test system: pancreatic cancer; conditions: pancreatic cancer xenograft murine model; cited from earlier work
[12] = Solubility trials of QTX125 formulations (mixed 24 hours at room temperature); assay type: physicochemical; conditions: aqueous HPβCD solution (HPβCD as only excipient), aqueous with cosolvent or surfactant or cyclodextrin, thermodynamic from solid; with HPβCD alone (Example 1.3)
Method: The parameters required for the HPLC method used to determine the concentration of QTX125 in solution is set out below.
HPLC determination of the percentage of QTX125 in the solutions below was determined using the protocols set out above.
Assay (% LC) was determined by comparing the area of the peak for QTX125 to a calibration curve determined by running samples of known concentration of QTX125 (standards) on the HPLC.

[13] = target: T1, HDAC 6 (Homo sapiens, UniProt Q9UBN7); conditions: cited from earlier work
T1 sequence (Q9UBN7 1-1215): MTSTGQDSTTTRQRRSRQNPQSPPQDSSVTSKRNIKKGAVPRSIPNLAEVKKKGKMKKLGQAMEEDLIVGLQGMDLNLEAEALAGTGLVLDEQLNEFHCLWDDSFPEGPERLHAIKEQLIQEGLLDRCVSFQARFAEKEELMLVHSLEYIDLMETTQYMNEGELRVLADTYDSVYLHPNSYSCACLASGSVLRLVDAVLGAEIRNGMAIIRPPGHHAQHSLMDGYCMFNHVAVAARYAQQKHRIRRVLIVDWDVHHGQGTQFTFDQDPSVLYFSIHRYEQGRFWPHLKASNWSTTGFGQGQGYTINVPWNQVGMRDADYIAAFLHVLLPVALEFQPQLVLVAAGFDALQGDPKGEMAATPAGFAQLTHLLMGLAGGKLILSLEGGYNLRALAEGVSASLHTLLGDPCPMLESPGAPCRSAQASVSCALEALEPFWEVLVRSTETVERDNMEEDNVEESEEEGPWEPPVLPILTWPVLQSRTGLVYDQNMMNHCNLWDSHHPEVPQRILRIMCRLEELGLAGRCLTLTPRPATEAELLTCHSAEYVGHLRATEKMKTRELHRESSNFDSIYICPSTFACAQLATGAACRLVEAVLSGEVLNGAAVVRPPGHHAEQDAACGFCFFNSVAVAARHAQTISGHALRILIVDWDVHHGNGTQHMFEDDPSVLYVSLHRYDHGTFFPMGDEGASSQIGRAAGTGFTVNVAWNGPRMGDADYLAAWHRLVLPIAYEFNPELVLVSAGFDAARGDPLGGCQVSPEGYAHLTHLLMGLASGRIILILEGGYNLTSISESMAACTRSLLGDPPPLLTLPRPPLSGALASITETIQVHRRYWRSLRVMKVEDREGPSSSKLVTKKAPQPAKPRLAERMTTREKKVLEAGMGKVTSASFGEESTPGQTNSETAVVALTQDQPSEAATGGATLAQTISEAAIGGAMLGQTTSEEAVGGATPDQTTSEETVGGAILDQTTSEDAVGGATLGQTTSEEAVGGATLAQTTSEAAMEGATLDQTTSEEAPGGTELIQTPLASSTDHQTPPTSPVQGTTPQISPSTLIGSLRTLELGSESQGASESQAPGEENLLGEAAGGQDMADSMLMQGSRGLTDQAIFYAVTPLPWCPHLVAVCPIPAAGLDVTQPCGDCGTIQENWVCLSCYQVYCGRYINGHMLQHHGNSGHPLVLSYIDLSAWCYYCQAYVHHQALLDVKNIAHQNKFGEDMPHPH

2-hydroxypropyl-β-cyclodextrin
tolerance [1]: well tolerated

sulfobutyl ether β cyclodextrin [SBβCD]
renal histopathology [2]: no negative renal histopathology | acute toxicity [3]: no observable effects

O=C(NO)c1ccc(CNC(=O)c2[nH]c(-c3ccc(O)cc3)cc2-c2ccoc2)cc1 [QTX125, 3-(3-Furyl)-N-{4-[(hydroxyamino)carbonyl]benzyl}-5-(4-hydroxyphenyl)-1 Hpyrrole-2-carboxamide]
stability in solution [4]: physical and chemical instability in solution | solubility in water [5]: very low solubility in water | efficacy [6]: high efficacy | genotoxicity, in particular clastogenicity or aneugenicity [7]: no evidence of genotoxicity | antitumoral efficacy [8]: high antitumoral efficacy | pharmacokinetic properties (half-lives and distribution volumes) [9]: higher half-lives and distribution volumes | antitumoral efficacy [10]: high antitumoral efficacy | antitumoral efficacy [11]: high antitumoral efficacy | solubility at 24 h [12]: 140 µg/mL (≈ 335 µM) | HDAC 6 inhibition [13]: highly selective and highly potent
